Assay results from PubChem BioAssay AID1919014 (Molecular Pharmacology Branch, DTP, NCI, 2023).

Tested on: NCI-H1341 complex spheroids, percent test/control
Experiment: Anticancer human tumor NCI-H1341 cell line growth inhibition [AhR];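 note: spheroids exposed to agents for seven days before readout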
Settings: for IC50: curve of first compound; for viability, T/C: stronger effect = lower value
Source text: Multicellular complex tumor spheroid response to aryl hydrocarbon receptor antagonists in combination with a variety of drugs and investigational agents in selected tumor cell lines
The current study was undertaken to assess response to aryl hydrocarbon receptor antagonists in combination with standard-of-care drugs and investigational agents in solid tumor complex spheroid models. Complex spheroids include a stromal component modeled by human endothelial cells (HUVEC) and fibroblasts modeled by human mesenchymal stem cells (MSCs). The concentration ranges selected for each drug and investigational agent were based upon clinically achievable concentrations if the clinical Cmax of the agent was known.
Compounds. The drugs and investigational agents: BAY 2416964 (NSC825713), GNF351 (NSC835774), CH-223191 (NSC835775), CPI-455 (NSC825282), aza-TdCyd (NSC777586), decitabine (NSC127716), belinostat (NSC758774), entinostat (NSC756642), pevonedistat (NSC761192), tazemetostat (NSC777109), talazoparib (NSC765396), olaparib (NSC753686), selinexor (NSC780203), nedisertib (M3814, NSC802822), bortezomib (NSC756655), venetoclax (NSC766270), doxorubicin (NSC123127), elimusertib (BAY189344, NSC800525), ceralasertib (AZD6738, NSC777638), TAK-243 (NSC785004), alisertib (NSC759677), etoposide (NSC141540), topotecan (NSC609699), eribulin (NSC707389), gemcitabine (NSC613327), carboplatin (NSC241240), cisplatin (NSC119875), and SN-38 (NSC673596) were obtained from the National Cancer Institute (NCI) Developmental Therapeutics Program Chemical Repository (32). The FDA-approved anticancer drug set is available from the Developmental Therapeutics Program at https://dtp.cancer.gov/organization/dscb/obtaining/available plates.htm. […] The stock solutions were prepared in dimethyl sulfoxide (DMSO, Sigma-Aldrich, St. Louis, MO, cat. D2650), except for the platinum compounds which were prepared in saline (Quality Biological, Gaithersburg, MD, cat. 114-055-101), at 800-fold the tested concentration and stored at -70 degrees C prior to their use. All drugs and investigational agents were tested over a range starting from a high concentration at or near the clinical Cmax and decreasing in half-log increments. If the clinical Cmax for an agent had not been determined, the highest concentration tested was 10 microM (Table 1).
Cell Culture. All cells were maintained in an incubator at 37 degrees C and 5% CO2 with 95% humidity. The PDC lines were cultured according to standard operating procedures established by the NCI PDMR (https://pdmr.cancer.gov). Briefly, all PDCs were thawed and cultured in Matrigel-coated flasks prepared with a working solution of 1X Ham's F-12 nutrient mix, without supplementation (Invitrogen, Waltham, MA, cat. 11765054), 100 U/mL penicillin-streptomycin (Invitrogen, cat. 15140122), and 2.5% Matrigel (Corning Inc., Corning, NY, cat. 354248) for the first three passages. All PDCs were cultured in complete DMEM/F-12 media containing advanced DMEM/F-12 (Invitrogen, cat. 12634028), 4.9% defined fetal bovine serum, heat inactivated (HyClone Laboratories Inc., Logan, UT, cat. SH30070.03HI), 389 ng/mL hydrocortisone (Sigma-Aldrich, cat. H4001), 9.7 ng/mL human EGF recombinant protein (Invitrogen, cat. PHG0313), 23.4 microg/mL adenine (Sigma-Aldrich, cat. A2786), 97.3 U/mL penicillin-streptomycin (Invitrogen, cat. 15140122), 1.9 mM L-glutamine (Invitrogen, cat. 25030081), and 9.7 microM Y-27632 dihydrochloride (Tocris Bioscience, Bristol, United Kingdom, cat. 1254). The PDCs were cultured in complete DMEM/F12 media without 10 microM Y-27632 dihydrochloride for at least two passages prior to the screen. The established cell lines NCI-H1341 and […] were cultured in DMEM/F-12, HEPES (Invitrogen, cat. 11330032), 5% defined fetal bovine serum (HyClone Laboratories Inc., cat. SH30070.03), ITS premix universal culture supplement [insulin (5 microg/mL), transferrin (5 microg/mL), and selenious acid (5 ng/mL)] […]

[1] = second compound 0.1 µM, first compound 0.00316 µM
[2] = second compound 0.1 µM, first compound 0.01 µM
[3] = second compound 0.1 µM, first compound 0.0316 µM
[4] = second compound 0.1 µM, first compound 0.1 µM
[5] = second compound 0.316 µM, first compound 0.00316 µM
[6] = second compound 0.316 µM, first compound 0.01 µM
[7] = second compound 0.316 µM, first compound 0.0316 µM
[8] = second compound 0.316 µM, first compound 0.1 µM
[9] = second compound 1 µM, first compound 0.00316 µM
[10] = second compound 1 µM, first compound 0.01 µM
[11] = second compound 1 µM, first compound 0.0316 µM
[12] = second compound 1 µM, first compound 0.1 µM
[13] = second compound 3.16 µM, first compound 0.00316 µM
[14] = second compound 3.16 µM, first compound 0.01 µM
[15] = second compound 3.16 µM, first compound 0.0316 µM
[16] = second compound 3.16 µM, first compound 0.1 µM
[17] = second compound 10 µM, first compound 0.00316 µM
[18] = second compound 10 µM, first compound 0.01 µM
[19] = second compound 10 µM, first compound 0.0316 µM
[20] = second compound 10 µM, first compound 0.1 µM
[21] = second compound 0.1 µM, first compound 0.316 µM
[22] = second compound 0.1 µM, first compound 1 µM
[23] = second compound 0.1 µM, first compound 3.16 µM
[24] = second compound 0.1 µM, first compound 10 µM
[25] = second compound 0.316 µM, first compound 0.316 µM
[26] = second compound 0.316 µM, first compound 1 µM
[27] = second compound 0.316 µM, first compound 3.16 µM
[28] = second compound 0.316 µM, first compound 10 µM
[29] = second compound 1 µM, first compound 0.316 µM
[30] = second compound 1 µM, first compound 1 µM
[31] = second compound 1 µM, first compound 3.16 µM
[32] = second compound 1 µM, first compound 10 µM
[33] = second compound 3.16 µM, first compound 0.316 µM
[34] = second compound 3.16 µM, first compound 1 µM
[35] = second compound 3.16 µM, first compound 3.16 µM
[36] = second compound 3.16 µM, first compound 10 µM
[37] = second compound 10 µM, first compound 0.316 µM
[38] = second compound 10 µM, first compound 1 µM
[39] = second compound 10 µM, first compound 3.16 µM
[40] = second compound 10 µM, first compound 10 µM

Row | SMILES | IC50 (second compound 0.1 µM) | IC50 (second compound 0.316 µM) | IC50 (second compound 1 µM) | IC50 (second compound 3.16 µM) | IC50 (second compound 10 µM) | viability, T/C [3] | viability, T/C [4] | viability, T/C [7] | viability, T/C [8] | viability, T/C [11] | viability, T/C [12] | viability, T/C [15] | viability, T/C [16] | viability, T/C [19] | viability, T/C [20] | viability, T/C [21] | viability, T/C [22] | viability, T/C [25] | viability, T/C [26] | viability, T/C [29] | further results
1 | CC[C@@]1(O)C(=O)OCc2c1cc1n(c2=O)Cc2cc3c(CN(C)C)c(O)ccc3nc2-1 + CC(CO)NC(=O)c1cc(-c2ccc(Cl)cc2)nn(-c2cnn(C)c2)c1=O | 31.3 nM | 60.3 nM | 48.9 nM | 31.4 nM | 32.4 nM | 50.3% | 40.2% | 58.3% | 43.5% | 58.8% | 37.2% | 49.5% | 39.1% | 48% | 36.6% |  |  |  |  |  | viability, T/C (second compound 0.1 µM, first compound 0.000316 µM): 81.7%; viability, T/C (second compound 0.1 µM, first compound 0.001 µM): 85.1%; viability, T/C [1]: 103%; viability, T/C [2]: 81.5%; viability, T/C (second compound 0.316 µM, first compound 0.000316 µM): 84.4%; viability, T/C (second compound 0.316 µM, first compound 0.001 µM): 66.2%; viability, T/C [5]: 84.6%; viability, T/C [6]: 75.8%; viability, T/C (second compound 1 µM, first compound 0.000316 µM): 90.7%; viability, T/C (second compound 1 µM, first compound 0.001 µM): 84%; viability, T/C [9]: 65%; viability, T/C [10]: 76.8%; viability, T/C (second compound 3.16 µM, first compound 0.000316 µM): 87.3%; viability, T/C (second compound 3.16 µM, first compound 0.001 µM): 74.8%; viability, T/C [13]: 79.2%; viability, T/C [14]: 71.4%; viability, T/C (second compound 10 µM, first compound 0.000316 µM): 80.8%; viability, T/C (second compound 10 µM, first compound 0.001 µM): 77.8%; viability, T/C [17]: 69.2%; viability, T/C [18]: 70.1%
2 | COc1cc(C2c3cc4c(cc3C(OC3OC5COC(C)OC5C(O)C3O)C3COC(=O)C23)OCO4)cc(OC)c1O (stereo not given) + CC(CO)NC(=O)c1cc(-c2ccc(Cl)cc2)nn(-c2cnn(C)c2)c1=O | 1190 nM | 673 nM | 471 nM | 294 nM | 135 nM | 85.9% | 84.6% | 72.4% | 69.1% | 74.2% | 76.5% | 74.6% | 75.6% | 63.5% | 56.8% | 65.2% | 50.4% | 55.5% | 44.8% | 54.4% | viability, T/C [23]: 44.8%; viability, T/C [24]: 33.3%; viability, T/C [27]: 39.4%; viability, T/C [28]: 28.7%; viability, T/C [30]: 44.3%; viability, T/C [31]: 41.3%; viability, T/C [32]: 36.1%; viability, T/C [33]: 48.2%; viability, T/C [34]: 40.2%; viability, T/C [35]: 41.1%; viability, T/C [36]: 28.6%; viability, T/C [37]: 40.6%; viability, T/C [38]: 33.4%; viability, T/C [39]: 33.2%; viability, T/C [40]: 27.3%
3 | COc1cccc2c1C(=O)c1c(O)c3c(c(O)c1C2=O)CC(O)(C(=O)CO)CC3OC1CC(N)C(O)C(C)O1 (stereo not given) + CC(CO)NC(=O)c1cc(-c2ccc(Cl)cc2)nn(-c2cnn(C)c2)c1=O | 108 nM | < 31.6 nM | 103 nM | < 31.6 nM | < 31.6 nM | 51% | 53% | 51.3% | 40.9% | 48.4% | 53.3% | 43.9% | 53.7% | 41.6% | 36.8% | 32.4% | 6.25% | 28.4% | 6.42% | 30.2% | viability, T/C [23]: 0.83%; viability, T/C [24]: 2.75%; viability, T/C [27]: 0.79%; viability, T/C [28]: 2.4%; viability, T/C [30]: 4.94%; viability, T/C [31]: 1.46%; viability, T/C [32]: 2.75%; viability, T/C [33]: 26.7%; viability, T/C [34]: 3.92%; viability, T/C [35]: 3.09%; viability, T/C [36]: 2.61%; viability, T/C [37]: 15.2%; viability, T/C [38]: 0.93%; viability, T/C [39]: 2.19%; viability, T/C [40]: 2.31%
4 | Nc1ncn(C2CC(O)C(CO)O2)c(=O)n1 (stereo not given) + CC(CO)NC(=O)c1cc(-c2ccc(Cl)cc2)nn(-c2cnn(C)c2)c1=O | 154 nM | 179 nM | 85.3 nM | 207 nM | 215 nM | 81.8% | 59.3% | 85.2% | 61.8% | 81.3% | 45% | 67.1% | 66.3% | 79.8% | 67.5% | 34.2% | 26.6% | 39.1% | 31.8% | 32.5% | viability, T/C [1]: 76.5%; viability, T/C [2]: 85.7%; viability, T/C [5]: 92.1%; viability, T/C [6]: 99%; viability, T/C [9]: 92.2%; viability, T/C [10]: 86.3%; viability, T/C [30]: 33.7%; viability, T/C [13]: 79.8%; viability, T/C [14]: 65.6%; viability, T/C [33]: 40.6%; viability, T/C [34]: 30.9%; viability, T/C [17]: 82.1%; viability, T/C [18]: 69.6%; viability, T/C [37]: 41%; viability, T/C [38]: 27.2%
